Source: US7517894B2, “VEGFR-2 and VEGFR-3 inhibitory anthranilamide pyridines” (Bayer Schering Pharma AG, priority 2003, dated 2009)

Experiments:
[1] = biological target: T1, human cytochrome P 450 isoenzyme (3A4) (Homo sapiens, UniProt P08684); assay: Cytochrome P450 inhibition (Crespi et al.); format: in vitro ADME; conditions: baculovirus/insect cell-expressed human isoenzyme 3A4
T1 construct: host or cells: baculovirus/insect cells
Description: The cytochrome P450 inhibition was performed according to the publication of Crespi et al. (Anal. Biochem., 248, 188-190 (1997)) with use of baculovirus/insect cell-expressed, human cytochrome P 450 isoenzyme (3A4).

[2] = biological target: VEGFR II (KDR) (Homo sapiens, UniProt P35968); assay: Inhibition of the KDR kinase activity (33P-ATP, poly-(Glu4Tyr) phosphocellulose filter assay); format: biochemical; conditions: 10 minutes at room temperature; phosphate incorporation into poly-(Glu4Tyr)
Description: • Stock solution A: 3 mmol of ATP in water, pH 7.0 (−70° C.) • Stock solution B: g-33P-ATP 1 mCi/100 μl • Stock solution C: poly-(Glu4Tyr) 10 mg/ml in water Solution for Dilutions • Substrate solvent: 10 mmol of DTT, 10 mmol of manganese chloride, 100 mmol of magnesium chloride • Enzyme solution: 120 mmol of tris/HCl, pH 7.5, 10 μM of sodium vanadium oxide Sample Application 1
In a microtiter plate (without protein binding) that tapers to a point, 10 μl of substrate mix (10 μl of volume of ATP stock solution A+25 μCi of g-33P-ATP (about 2.5 μl of stock solution B)+30 μl of poly-(Glu4Tyr) stock solution C+1.21 ml of substrate solvent), 10 μl of inhibitor solution (substances corresponding to the dilutions, 3% DMSO in substrate solvent as a control) and 10 μl of enzyme solution (11.25 μg of enzyme stock solution (KDR or FLT-1 kinase) are added at 4° C. in 1.25 ml of enzyme solution (dilute). It is thoroughly mixed and incubated for 10 minutes at room temperature. Then, 10 μl of stop solution (250 mmol of EDTA, pH 7.0) is added, mixed, and 10 μl of the solution is transferred to a P 81 phosphocellulose filter. Then, it is washed several times in 0.1 M phosphoric acid. The filter paper is dried, coated with Meltilex and measured in a microbeta counter.
The IC50 values are determined from the inhibitor concentration, which is necessary to inhibit the phosphate incorporation to 50% of the uninhibited incorporation after removal of the blank reading (EDTA-stopped reaction).

VEGFR II (KDR), sequence (P35968 20-1356): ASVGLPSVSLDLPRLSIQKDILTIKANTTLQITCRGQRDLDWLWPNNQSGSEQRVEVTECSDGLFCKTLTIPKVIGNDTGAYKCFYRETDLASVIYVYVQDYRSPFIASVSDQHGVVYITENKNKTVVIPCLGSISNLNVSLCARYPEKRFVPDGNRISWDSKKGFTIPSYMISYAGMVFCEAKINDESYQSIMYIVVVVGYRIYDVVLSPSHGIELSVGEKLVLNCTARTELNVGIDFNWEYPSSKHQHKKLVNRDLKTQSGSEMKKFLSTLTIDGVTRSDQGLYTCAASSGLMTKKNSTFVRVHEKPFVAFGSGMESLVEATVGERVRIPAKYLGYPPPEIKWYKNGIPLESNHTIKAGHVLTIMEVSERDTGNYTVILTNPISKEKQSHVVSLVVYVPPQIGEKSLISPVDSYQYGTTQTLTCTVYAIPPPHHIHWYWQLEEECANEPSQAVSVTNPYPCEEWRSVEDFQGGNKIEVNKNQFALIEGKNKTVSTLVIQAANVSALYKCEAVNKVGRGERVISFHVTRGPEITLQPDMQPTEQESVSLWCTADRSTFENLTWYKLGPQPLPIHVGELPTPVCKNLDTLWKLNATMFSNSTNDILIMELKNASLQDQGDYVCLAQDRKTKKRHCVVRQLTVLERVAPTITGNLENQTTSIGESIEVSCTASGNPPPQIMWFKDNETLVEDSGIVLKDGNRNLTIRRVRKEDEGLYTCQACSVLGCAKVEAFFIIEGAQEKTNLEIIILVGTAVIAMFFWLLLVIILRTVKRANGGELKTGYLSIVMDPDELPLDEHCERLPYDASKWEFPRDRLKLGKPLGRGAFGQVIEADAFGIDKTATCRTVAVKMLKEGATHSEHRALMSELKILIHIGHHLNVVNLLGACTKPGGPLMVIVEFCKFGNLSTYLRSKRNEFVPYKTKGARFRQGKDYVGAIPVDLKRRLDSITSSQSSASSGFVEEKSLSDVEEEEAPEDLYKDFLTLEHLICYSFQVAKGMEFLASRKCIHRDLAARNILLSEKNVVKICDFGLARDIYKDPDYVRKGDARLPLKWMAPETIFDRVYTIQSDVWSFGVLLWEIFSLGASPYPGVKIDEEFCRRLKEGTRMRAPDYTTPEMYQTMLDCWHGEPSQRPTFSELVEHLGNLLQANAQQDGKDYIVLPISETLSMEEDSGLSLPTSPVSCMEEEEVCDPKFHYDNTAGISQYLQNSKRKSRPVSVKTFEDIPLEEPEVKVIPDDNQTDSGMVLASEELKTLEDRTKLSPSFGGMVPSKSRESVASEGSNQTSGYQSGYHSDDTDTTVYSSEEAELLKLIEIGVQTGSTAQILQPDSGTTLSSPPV
T1 sequence (P08684 whole entry): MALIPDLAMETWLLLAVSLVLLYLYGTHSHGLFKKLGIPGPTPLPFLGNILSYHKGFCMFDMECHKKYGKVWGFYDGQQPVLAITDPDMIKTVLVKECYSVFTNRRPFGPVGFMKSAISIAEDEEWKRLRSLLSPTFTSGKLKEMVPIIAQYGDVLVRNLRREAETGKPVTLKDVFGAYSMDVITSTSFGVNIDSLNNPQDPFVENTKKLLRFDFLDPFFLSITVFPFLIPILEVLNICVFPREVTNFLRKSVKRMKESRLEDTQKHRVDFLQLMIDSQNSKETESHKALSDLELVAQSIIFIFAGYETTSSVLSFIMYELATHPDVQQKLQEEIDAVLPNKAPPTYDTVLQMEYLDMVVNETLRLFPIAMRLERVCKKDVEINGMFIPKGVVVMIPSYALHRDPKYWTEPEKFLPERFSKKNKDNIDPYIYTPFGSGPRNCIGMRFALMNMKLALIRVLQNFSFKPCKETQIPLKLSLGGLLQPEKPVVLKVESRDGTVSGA

Compound | IC50 [1] [µM] | IC50 [2] [nM] | melting point [°C]
O=C(Nc1cc2ccccc2cn1)c1ccccc1NCc1ccnc(N2CCOCC2)c1 [Example 1.14] | > 30 | 52 | –
Nc1cc(CNc2ccccc2C(=O)Nc2ccc3[nH]ncc3c2)ccn1 [Example 2.2, 2-[(2-Amino-pyridin-4-ylmethyl)-amino]-N-(1H-indazol-5-yl)-benzamide] | – | – | 200
CCOC(=O)Nc1cc(CNc2ccccc2C(=O)Nc2ccc3cn[nH]c3c2)ccn1 [Example 6.22] | 10 | 24 | –
O=C(Nc1cccc(C(F)(F)F)c1)c1ccccc1NCc1ccnc(N2C(=O)COCC2=O)c1 [Example 9.1, 2-{[2-(3,5-Dioxo-morpholin-4-yl)-pyridin-4-ylmethyl]-amino}-N-(3-trifluoromethyl-phenyl)-benzamide] | – | – | 201.9

Second part, the molecule after the results:

IC50 [1] [µM] | IC50 [2] [nM] | melting point [°C] | Compound
– | – | 202 | Nc1cc(CNc2ccccc2C(=O)Nc2cc3ccccc3cn2)ccn1 [Example 2.1, 2-[(2-Amino-pyridin-4-ylmethyl)-amino]-N-isoquinolin-3-yl-benzamide]
14 | 12 | – | CNC(=O)Nc1cc(CNc2ccccc2C(=O)Nc2cc3ccccc3cn2)ccn1 [Example 3.24]
5.5 | 10 | – | CN(C)C(=O)Nc1cc(CNc2ccccc2C(=O)Nc2cc3ccccc3cn2)ccn1 [Example 3.30, 2-{[2-(3,3-Dimethyl-ureido)-pyridin-4-ylmethyl]-amino}-N-(3-isoquinolinyl)-benzamide]
11 | 65 | 71 | CC(=O)N(C)c1cc(CNc2ccccc2C(=O)Nc2cc3ccccc3cn2)ccn1 [Example 6.31, 2-{[2-(Acetyl-methyl-amino)-pyridin-4-ylmethyl]-amino}-N-isoquinolin-3-yl-benzamide]
